Laboratory results taken from ChEMBL document CHEMBL1156067, “Pyrimidine-based antagonists of h-MCH-R1 derived from ATC0175: in vitro profiling and in vivo evaluation” (Bioorg Med Chem Lett, 2009).
Activity calls are given as the source filed them. No cut-off for these calls is given here.

How the values were obtained:
[1] = target: T1, Melanin-concentrating hormone receptor 1 (Homo sapiens, UniProt Q99705); experiment: Antagonist activity at CART form of human MCH1 receptor expressed in HEK293 cells coexpressing Galphaq assessed as inhibition of MCH-induced intracellular calcium level by FLIPR assay; type: functional, cell-based
Target sequence in this assay (Q99705 whole entry, looked up): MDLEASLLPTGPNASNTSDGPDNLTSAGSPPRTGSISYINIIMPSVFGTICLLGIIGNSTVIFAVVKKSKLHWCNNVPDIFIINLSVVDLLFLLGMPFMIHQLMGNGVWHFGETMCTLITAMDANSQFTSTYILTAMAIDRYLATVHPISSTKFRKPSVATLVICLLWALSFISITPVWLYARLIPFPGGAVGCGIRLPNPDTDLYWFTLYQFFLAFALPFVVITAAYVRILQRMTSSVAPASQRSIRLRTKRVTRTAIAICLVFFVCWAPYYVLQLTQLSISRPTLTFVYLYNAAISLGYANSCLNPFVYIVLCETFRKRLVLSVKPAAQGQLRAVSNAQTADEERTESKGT

[2] = target: T1, Melanin-concentrating hormone receptor 1; experiment: Antagonist activity at CART form of human MCH1 receptor expressed in HEK293 cells coexpressing Galphaq assessed as inhibition of MCH-induced intracellular calcium level up to 10 uM by FLIPR assay; type: functional, cell-based
Target sequence in this assay (Q99705 whole entry): as the sequence (Q99705 whole entry, looked up) above

[3] = target: T2, 5-hydroxytryptamine receptor 2B (Homo sapiens, UniProt P41595); experiment: Displacement of [3H]rauwolsine from human 5HT2B receptor
[4] = target: T3, Alpha-2A adrenergic receptor (Homo sapiens, UniProt P08913); experiment: Displacement of [3H]MK-912 from human adrenergic alpha2A receptor
T3 sequence (P08913 whole entry): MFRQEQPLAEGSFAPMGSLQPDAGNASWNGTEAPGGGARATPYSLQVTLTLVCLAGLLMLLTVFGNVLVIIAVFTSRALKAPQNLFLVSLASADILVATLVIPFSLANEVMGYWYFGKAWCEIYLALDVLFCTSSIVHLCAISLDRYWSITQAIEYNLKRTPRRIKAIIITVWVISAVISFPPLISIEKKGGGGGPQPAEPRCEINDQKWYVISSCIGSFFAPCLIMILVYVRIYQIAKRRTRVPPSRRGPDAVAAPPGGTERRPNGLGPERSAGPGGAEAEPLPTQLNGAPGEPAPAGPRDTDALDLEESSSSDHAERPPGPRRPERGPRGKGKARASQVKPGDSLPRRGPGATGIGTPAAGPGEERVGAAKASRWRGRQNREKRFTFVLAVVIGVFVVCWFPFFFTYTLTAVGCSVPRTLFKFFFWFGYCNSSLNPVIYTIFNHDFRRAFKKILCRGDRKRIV

[5] = target: T4, Alpha-1A adrenergic receptor (Homo sapiens, UniProt P35348); experiment: Displacement of [3H]prazosin from human adrenergic alpha1A receptor
T4 sequence (P35348 whole entry): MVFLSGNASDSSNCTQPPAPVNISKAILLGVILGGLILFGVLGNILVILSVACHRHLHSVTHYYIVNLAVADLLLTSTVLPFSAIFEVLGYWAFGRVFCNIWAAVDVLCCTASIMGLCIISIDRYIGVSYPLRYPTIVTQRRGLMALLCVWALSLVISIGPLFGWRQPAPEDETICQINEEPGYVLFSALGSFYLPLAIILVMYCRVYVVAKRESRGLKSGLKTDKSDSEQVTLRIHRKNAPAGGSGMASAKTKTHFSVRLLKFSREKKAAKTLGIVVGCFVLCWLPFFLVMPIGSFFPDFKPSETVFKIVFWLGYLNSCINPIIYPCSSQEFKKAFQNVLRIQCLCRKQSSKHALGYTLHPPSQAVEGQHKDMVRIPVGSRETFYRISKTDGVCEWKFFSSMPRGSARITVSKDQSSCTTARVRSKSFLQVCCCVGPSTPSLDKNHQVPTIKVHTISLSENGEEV

Histamine H1 receptor = Histamine H1 receptor (Homo sapiens, UniProt P35367); experiment: Displacement of [3H]pyrilamine from human histamine H1 receptor
[6] = target: T2, 5-hydroxytryptamine receptor 2B; experiment: Displacement of [125I]LSD from human 5HT2B receptor
[7] = target: T5, 5-hydroxytryptamine receptor 1A (Homo sapiens, UniProt P08908); experiment: Inhibition of human 5HT1A
T5 sequence (P08908 whole entry): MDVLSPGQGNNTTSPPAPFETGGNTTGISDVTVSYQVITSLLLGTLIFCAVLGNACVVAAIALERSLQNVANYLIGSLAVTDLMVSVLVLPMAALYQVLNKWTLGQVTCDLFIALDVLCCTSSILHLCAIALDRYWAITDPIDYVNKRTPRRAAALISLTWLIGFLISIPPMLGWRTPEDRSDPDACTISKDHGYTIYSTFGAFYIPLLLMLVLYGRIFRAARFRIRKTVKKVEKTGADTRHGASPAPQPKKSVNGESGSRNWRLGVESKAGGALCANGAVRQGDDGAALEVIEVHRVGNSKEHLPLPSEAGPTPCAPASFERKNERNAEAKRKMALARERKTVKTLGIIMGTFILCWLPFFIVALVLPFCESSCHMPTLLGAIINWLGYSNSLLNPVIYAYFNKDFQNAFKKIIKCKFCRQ

[8] = Drug level in Sprague-Dawley rat brain at 10 mg/kg, po after 2 hrs; type: ADME, organism-based; set-up: dose 10 mg/kg, route oral
[9] = Drug level in Sprague-Dawley rat brain at 10 mg/kg, po after 4 hrs; type: ADME, organism-based; set-up: dose 10 mg/kg, route oral
[10] = Plasma concentration in Sprague-Dawley rat at 10 mg/kg, po after 2 hrs; type: ADME, organism-based; set-up: dose 10 mg/kg, route oral
[11] = Plasma concentration in Sprague-Dawley rat at 10 mg/kg, po after 4 hrs; type: ADME, organism-based; set-up: dose 10 mg/kg, route oral
[12] = Ratio of drug level in brain to plasma in po dosed rat; type: ADME, organism-based

Sequence of Histamine H1 receptor (P35367 whole entry): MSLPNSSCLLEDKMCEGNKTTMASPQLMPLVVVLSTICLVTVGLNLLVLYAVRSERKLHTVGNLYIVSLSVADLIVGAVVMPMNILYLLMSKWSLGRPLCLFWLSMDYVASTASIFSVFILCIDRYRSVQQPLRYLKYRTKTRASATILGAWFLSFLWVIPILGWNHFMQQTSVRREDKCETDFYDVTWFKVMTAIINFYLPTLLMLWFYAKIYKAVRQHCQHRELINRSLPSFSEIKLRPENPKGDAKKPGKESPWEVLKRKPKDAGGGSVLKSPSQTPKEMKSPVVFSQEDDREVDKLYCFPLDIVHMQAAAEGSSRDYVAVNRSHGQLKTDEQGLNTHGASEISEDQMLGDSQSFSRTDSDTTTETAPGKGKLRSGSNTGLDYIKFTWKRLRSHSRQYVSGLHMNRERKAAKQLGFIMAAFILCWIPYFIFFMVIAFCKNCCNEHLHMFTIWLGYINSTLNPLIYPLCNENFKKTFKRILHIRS
T2 sequence (P41595 whole entry): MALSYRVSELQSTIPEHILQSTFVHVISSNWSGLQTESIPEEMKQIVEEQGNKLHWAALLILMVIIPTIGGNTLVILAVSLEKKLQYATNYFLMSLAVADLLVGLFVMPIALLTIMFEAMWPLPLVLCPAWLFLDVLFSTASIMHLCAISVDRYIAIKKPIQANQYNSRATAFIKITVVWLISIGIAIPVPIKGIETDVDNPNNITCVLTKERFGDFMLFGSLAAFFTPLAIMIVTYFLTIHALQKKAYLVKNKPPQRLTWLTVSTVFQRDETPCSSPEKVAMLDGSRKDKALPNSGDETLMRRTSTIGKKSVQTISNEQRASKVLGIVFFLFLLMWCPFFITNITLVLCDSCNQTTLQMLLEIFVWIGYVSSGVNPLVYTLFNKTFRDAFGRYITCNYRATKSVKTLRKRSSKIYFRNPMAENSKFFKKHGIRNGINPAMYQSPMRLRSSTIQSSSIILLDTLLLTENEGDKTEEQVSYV

Question: For Cc1nc(N[C@H]2CC[C@@H](NC(=O)c3ccc(F)c(F)c3)CC2)nc(N(C)C)c1C, which IC50 [1] is on record?
Answer: The IC50 was 2.3 nM.

Question: Which Activity [2] does the source give for Cc1cnc(N[C@H]2CC[C@@H](CNC(=O)c3cc(C(F)(F)F)cc(C(F)(F)F)c3)CC2)nc1N1CCCC1 here?
Answer: Its Activity is “inactive”.

Question: With COc1cccc(C(=O)N[C@H]2CC[C@@H](Nc3nc(C)cc(N(C)C)n3)CC2)c1 as the molecule, how does the IC50 [1] read?
Answer: Its IC50 is 7.6 nM.

Question: With Cc1cccc(C(=O)N[C@H]2CC[C@@H](Nc3nc(C)cc(N(C)C)n3)CC2)c1 as the molecule, how does the IC50 [1] read?
Answer: Its IC50 is 9.6 nM.

Question: With CN(C)CC1CCc2cc(NC(=O)c3ccc(-c4ccc(F)cc4)cc3)ccc2C1 (stereo unspecified) as the molecule, how does the IC50 [1] read?
Answer: The IC50 was 5.5 nM.

Question: With Cc1cccc(C(=O)N[C@H]2CC[C@@H](Nc3ncc(C)c(N(C)C)n3)CC2)c1 as the molecule, how does the IC50 [1] read?
Answer: Its IC50 is 2.9 nM.

Question: And the IC50 [3]?
Answer: Its IC50 is 31 nM.

Question: What about the IC50 [4] of the same molecule?
Answer: Its IC50 is 580 nM.

Question: What about the IC50 [5] of the same molecule?
Answer: Its IC50 is 2790 nM.

Question: What about the IC50 (Histamine H1 receptor) of the same molecule?
Answer: The IC50 was 1600 nM.

Question: Which IC50 [1] does the source give for CCc1cnc(N[C@H]2CC[C@@H](NC(=O)c3ccc(F)c(F)c3)CC2)nc1N(C)C here?
Answer: Its IC50 is 100 nM.

Question: Which results are given for CN(C)c1nc(N[C@H]2CC[C@@H](NC(=O)c3ccc(F)c(F)c3)CC2)nc2ccccc12?
Answer: IC50 [3]: 150 nM; IC50 [6]: 9.66 nM; IC50 [4]: 104 nM; IC50 [5]: 300 nM; IC50 (Histamine H1 receptor): 150 nM; IC50 [7]: 16.9 nM; concentration at 2 h [8]: 55 ng/g; concentration at 4 h [9]: 70 ng/g; concentration at 2 h [10]: 109 ng/mL; concentration at 4 h [11]: 101 ng/mL; Kp [12]: 0.5

Question: For CCNc1nc(N[C@H]2CC[C@@H](CNC(=O)c3cc(C(F)(F)F)cc(C(F)(F)F)c3)CC2)ncc1C, which Activity [2] is on record?
Answer: The Activity was “inactive”.

Question: With COCC1=C(C(=O)OC)[C@H](c2ccc(F)c(F)c2)N(C(=O)NCCCN2CCC(c3cccc(NC(C)=O)c3)CC2)C(=O)N1 [SNAP-7941] as the molecule, how does the pA2 [1] read?
Answer: Its pA2 is 9.24.

Question: Which results are given for Cc1cnc(N[C@H]2CC[C@@H](CNC(=O)c3ccc(F)c(F)c3)CC2)nc1N(C)C?
Answer: IC50 [1]: 120 nM; IC50 [3]: 320 nM; IC50 [4]: 210 nM; IC50 [5]: 3600 nM; IC50 (Histamine H1 receptor): 920 nM

Question: Which IC50 [1] does the source give for Cc1cc(N(C)C)nc(N[C@H]2CC[C@@H](CNC(=O)c3ccc(F)c(F)c3)CC2)n1 here?
Answer: Its IC50 is 210 nM.

Question: Which IC50 [1] does the source give for Cc1cc(N(C)C)nc(N[C@H]2CC[C@@H](NC(=O)c3ccc(F)cc3)CC2)n1 here?
Answer: Its IC50 is 25 nM.

Question: With CCNc1nc(N[C@H]2CC[C@@H](NC(=O)c3ccc(F)c(F)c3)CC2)ncc1C as the molecule, how does the Activity [2] read?
Answer: Its Activity is “inactive”.

Question: For CCN(C)c1nc(N[C@H]2CC[C@@H](NC(=O)c3ccc(F)c(F)c3)CC2)ncc1C, which IC50 [1] is on record?
Answer: The IC50 was 46 nM.

Question: With CNc1nc(N[C@H]2CC[C@@H](NC(=O)c3ccc(F)c(F)c3)CC2)ncc1C as the molecule, how does the Activity [2] read?
Answer: Its Activity is “inactive”.

Question: For Cc1cc(N(C)C)nc(N[C@H]2CC[C@@H](NC(=O)c3ccc(OC(F)(F)F)cc3)CC2)n1, which IC50 [1] is on record?
Answer: The IC50 was 230 nM.

Question: With Cc1cnc(N[C@H]2CC[C@@H](NC(=O)c3ccc(F)c(F)c3)CC2)nc1NC(C)C as the molecule, how does the Activity [2] read?
Answer: Its Activity is “inactive”.
